In patent US20110105472A1, “Diaminopyrimidines as crop protection agents” (Bayer CropScience AG, priority 2008, published 2011):

test: logP by LC-MS, method [b], acidic range pH 2.7; assay type: physicochemical; details: pH 2.7

| SMILES | log p |
| --- | --- |
| O=S1(=O)CCCN1c1cccc(Nc2ncc(Cl)c(NC3CCC3)n2)c1 [Compound 257] | 1.74[b] |
| CC(=O)c1cccc(Nc2ncc(C(F)(F)F)c(NC3CCC3)n2)c1 [Compound 227] | 3.24[b] |
| O=C(NC1CC1)c1cccc(Nc2ncc(Br)c(NC3CCC3)n2)c1 [Compound 180] | 1.78[b] |
| COCc1cccc(Nc2ncc(Cl)c(NC3CCC3)n2)c1 [Compound 42] | 2.05[b] |
| CNC(=O)Oc1cccc(Nc2ncc(Cl)c(NC3CCC3)n2)c1 [Compound 138] | 1.64[b] |
| Cc1cccc(Nc2ncc(Br)c(NC3CCC3)n2)c1 [Compound 224] | 2.55[b] |
| O=CNc1ccc(Nc2ncc(Br)c(NC3CCC3)n2)cc1 [Compound 152] | 1.47[b] |
| O=C1NC(=O)C(c2ccc(Nc3ncc(Cl)c(NC4CCC4)n3)cc2)N1 (centres unmarked) [compound 134] | 1.33[b] |
| Oc1ccc(Nc2ncc(Br)c(NC3CCC3)n2)c(F)c1 [Compound 80] | 1.55[b] |
| CC(C)(CF)C(=O)Nc1cccc(Nc2ncc(Cl)c(NC3CCC3)n2)c1 [Compound 141] | 1.97[b] |
| CC(C)(C)C(=O)Nc1cccc(Nc2ncc(Cl)c(NC3CCC3)n2)c1 [Compound 125] | 2.04[b] |
| C=C(C)C(=O)Nc1cccc(Nc2ncc(Br)c(NC3CCC3)n2)c1 [Compound 98] | 1.9[b] |
| CNC(=O)Oc1cccc(Nc2ncc(Br)c(NC3CCC3)n2)c1 [Compound 196] | 1.75[b] |
| O=C(Nc1cccc(Nc2ncc(Br)c(NC3CCC3)n2)c1)Oc1ccccc1 [compound 199] | 2.51[b] |
| Cc1nc2cc(Nc3ncc(Br)c(NC4CCC4)n3)ccc2s1 [Compound 10] | 2.11[b] |
| CNc1cccc(Nc2ncc(Cl)c(NC3CCC3)n2)c1 [Compound 260] | 1.49[b] |
| CC(C)(C)c1cccc(Nc2ncc(Cl)c(NC3CCC3)n2)c1 [compound 255] | 3.26[b] |
| FC(F)(F)Oc1ccc(Nc2ncc(Br)c(NC3CCC3)n2)cc1Cl [Compound 81] | 4.72[b] |
| Cc1cccc(Nc2ncc(Cl)c(NC3CCC3)n2)c1 [Compound 231] | 2.33[b] |

Other lines, results leading:

| log p | SMILES |
| --- | --- |
| 1.99[b] | CC(C)(CF)C(=O)Nc1ccc(Nc2ncc(Br)c(NC3CCC3)n2)cc1 [Compound 171] |
| 2.46[b] | CN(C)S(=O)(=O)Oc1ccc(Nc2ncc(Br)c(NC3CCC3)n2)cc1 [Compound 160] |
| 1.24[b] | O=C1NC(=O)C(c2ccc(Nc3ncc(Br)c(NC4CCC4)n3)cc2)N1 (centres unmarked) [Compound 187] |
| 2.06[b] | O=C(Nc1ccc(Nc2ncc(Br)c(NC3CCC3)n2)cc1)OCCCl [compound 43] |
| 2.26[b] | CC(=O)c1ccc(Nc2ncc(Cl)c(NC3CCC3)n2)cc1 [compound 131] |
| 1.68[b] | CN(C=O)c1ccc(Nc2ncc(Br)c(NC3CCC3)n2)cc1 [Compound 153] |
| 2.02[b] | CC(C)(C)C(=O)Nc1ccc(Nc2ncc(Br)c(NC3CCC3)n2)cc1 [Compound 92] |
| 1.27[b] | Oc1ccc(Nc2ncc(Br)c(NC3CCC3)n2)cc1 [compound 37] |
| 1.83[b] | CCN(C(C)=O)c1ccc(Nc2ncc(Cl)c(NC3CCC3)n2)cc1 [Compound 119] |
| 1.71[b] | CCC(=O)Nc1cccc(Nc2ncc(Br)c(NC3CCC3)n2)c1 [Compound 97] |
| 1.61[b] | CS(=O)(=O)Nc1ccc(Nc2ncc(Br)c(NC3CCC3)n2)cc1 [Compound 85] |
| 1.75[b] | COc1cc(Nc2ncc(Br)c(NC3CCC3)n2)ccc1NS(C)(=O)=O [Compound 84] |
| 2.36[b] | CC(C)(C)OC(=O)Nc1ccc(Nc2ncc(Br)c(NC3CCC3)n2)cc1 [Compound 162] |
| 4.32[b] | O=S(=O)(c1ccc(Nc2ncc(Br)c(NC3CCC3)n2)cc1)C(F)(F)F [compound 193] |
| 2.59[b] | O=C1CCc2cc(Nc3ncc(Br)c(NC4CCC4)n3)ccc21 [compound 9] |
| 1.78[b] | CC(=O)N1CCc2ccc(Nc3ncc(Br)c(NC4CCC4)n3)cc21 [Compound 12] |
